What all share (type): in vivo
Experiment [1] relates to Phakopsora pachyrhizi. Description: Fungicidal activity: Asian soybean rust (PHAKPA). As to conditions: High volume, 25 ppm; for PHAKPA 1DP disease control: 1 Day Protectant; for PHAKPA 3DC disease control: 3 Day Curative. Here is the method: Technical grades of materials were dissolved in acetone, which were then mixed with nine volumes of water containing 0.011% Tween 20. The fungicide solutions were applied onto soybean seedlings using an automated booth sprayer to run-off. All sprayed plants were allowed to air dry prior to further handling.
Soybean plants (variety Williams 82) were grown in soil-less Metro mix, with one plant per pot. Two week old seedlings were used for testing. Plants were inoculated either 3 days prior to or 1 day after fungicide treatments. Plants were incubated for 24 h in a dark dew room at 22° C. and 100% relative humidity then transferred to a growth room at 23° C. for disease to develop. Disease severity was assessed on the sprayed leaves.

Experiment [2] has as its system Glomerella lagenarium; Anamorph: Colletotrichum lagenarium. Description: Fungicidal activity: cucumber anthracnose (COLLLA). As to conditions: 1DP test at 100 ppm. On the procedure: Technical grades of materials were dissolved in acetone, which were then mixed with nine volumes of water containing 110 ppm Triton X-100. The fungicide solutions were applied onto wheat seedlings using an automated booth sprayer to run-off. All sprayed plants were allowed to air dry prior to further handling. All fungicides were evaluated using the aforementioned method for their activity vs. all target diseases, unless stated otherwise. Wheat leaf blotch and brown rust activity were also evaluated using track spray applications, in which case the fungicides were formulated as EC formulations, containing 0.1% Trycol 5941 in the spray solutions. Cucumber seedlings (variety Bush Pickle) were propagated in soil-less Metro mix, with each pot having one plant, and used in the test when 12 to 14 days old. Test plants were inoculated with an aqueous spore suspension of Colletotrichum lagenarium 24 hr after fungicide treatments. After inoculation the plants were kept in a dew room at 22° C. with 100% relative humidity for 48 hr to permit spores to germinate and infect the leaf. The plants were then transferred to a growth room set at 22° C. for disease to develop. Fungicide formulation, application and disease assessment on the sprayed leaves followed the procedures as described in the Example A.

Experiment [3] deals with Cercospora beticola. Nature of the experiment: Fungicidal activity: leaf spot of sugar beets (CERCBE). As to conditions: 1DP test at 100 ppm, sugar beet. Here is the method:
Technical grades of materials were dissolved in acetone, which were then mixed with nine volumes of water containing 110 ppm Triton X-100. The fungicide solutions were applied onto wheat seedlings using an automated booth sprayer to run-off. All sprayed plants were allowed to air dry prior to further handling. All fungicides were evaluated using the aforementioned method for their activity vs. all target diseases, unless stated otherwise. Wheat leaf blotch and brown rust activity were also evaluated using track spray applications, in which case the fungicides were formulated as EC formulations, containing 0.1% Trycol 5941 in the spray solutions. Sugar beet plants (variety HH88) were grown in soil-less Metro mix and trimmed regularly to maintain a uniform plant size prior to test. Plants were inoculated with a spore suspension 24 hr after fungicide treatments. Inoculated plants were kept in a dew chamber at 22° C. for 48 hr then incubated in a greenhouse set at 24° C. under a clear plastic hood with bottom ventilation until disease symptoms were fully expressed. Fungicide formulation, application and disease assessment on the sprayed leaves followed the procedures as described in the Example A.

Experiment [4] relates to Uncinula necator. Nature of the experiment: Fungicidal activity: grape powdery mildew (UNCINE). As to conditions: 1DP test at 100 ppm. Here is the method: Technical grades of materials were dissolved in acetone, which were then mixed with nine volumes of water containing 110 ppm Triton X-100. The fungicide solutions were applied onto wheat seedlings using an automated booth sprayer to run-off. All sprayed plants were allowed to air dry prior to further handling. All fungicides were evaluated using the aforementioned method for their activity vs. all target diseases, unless stated otherwise. Wheat leaf blotch and brown rust activity were also evaluated using track spray applications, in which case the fungicides were formulated as EC formulations, containing 0.1% Trycol 5941 in the spray solutions. Grape seedlings (variety Carignane) were grown in soil-less Metro mix, with one plant per pot, and used in the test when approximately 1 month old. Plants were inoculated 24 hr after fungicide treatment by shaking spores from infected leaves over test plants. Plants were maintained in a greenhouse set at 20° C. until disease was fully developed. Fungicide formulation, application and disease assessment on sprayed leaves followed the procedures as described in the Example A.

In experiment [5] the test system is Rhyncosporium secalis. Nature of the experiment: Fungicidal activity: barley scald (RHYNSE). As to conditions: 1DP test at 100 ppm. Here is the method: Technical grades of materials were dissolved in acetone, which were then mixed with nine volumes of water containing 110 ppm Triton X-100. The fungicide solutions were applied onto wheat seedlings using an automated booth sprayer to run-off. All sprayed plants were allowed to air dry prior to further handling. All fungicides were evaluated using the aforementioned method for their activity vs. all target diseases, unless stated otherwise. Wheat leaf blotch and brown rust activity were also evaluated using track spray applications, in which case the fungicides were formulated as EC formulations, containing 0.1% Trycol 5941 in the spray solutions. Barley seedlings (variety Harrington) were propagated in soil-less Metro mix, with each pot having 8 to 12 plants, and used in the test when first leaf was fully emerged. Test plants were inoculated by an aqueous spore suspension of Rhyncosporium secalis 24 hr after fungicide treatments. After inoculation the plants were kept in a dew room at 20° C. with 100% relative humidity for 48 hr. The plants were then transferred to a greenhouse set at 20° C. for disease to develop. Fungicide formulation, application and disease assessment on the sprayed leaves followed the procedures as described in the Example A.

Experiment [6] deals with Pseudoperonospora cubensis. Description: Fungicidal activity: cucumber downy mildew (PSPECU). As to conditions: 1DP test at 100 ppm. Here is the method:
Technical grades of materials were dissolved in acetone, which were then mixed with nine volumes of water containing 110 ppm Triton X-100. The fungicide solutions were applied onto wheat seedlings using an automated booth sprayer to run-off. All sprayed plants were allowed to air dry prior to further handling. All fungicides were evaluated using the aforementioned method for their activity vs. all target diseases, unless stated otherwise. Wheat leaf blotch and brown rust activity were also evaluated using track spray applications, in which case the fungicides were formulated as EC formulations, containing 0.1% Trycol 5941 in the spray solutions. Cucumber seedlings (variety Bush Pickle) were grown in soil-less Metro mix, with one plant per pot, and used in the test when 12 to 14 days old. Plants were inoculated with a spore suspension 24 hr following fungicide treatments. Test plants were inoculated with an aqueous spore suspension of Pseudoperonospora cubensis 24 hr after fungicide treatments. After inoculation the plants were kept in a dew room at 22° C. with 100% relative humidity for 24 hr to permit spores to germinate and infect the leaf. The plants were then transferred to a greenhouse set at 20° C. until disease was fully expressed. Fungicide formulation, application and disease assessment on the sprayed leaves followed the procedures as described in the Example A.

The test system of experiment [7] is Alternaria solani. Description: Fungicidal activity: tomato early blight (ALTESO). As to conditions: 1DP test at 100 ppm. Here is the method:
Technical grades of materials were dissolved in acetone, which were then mixed with nine volumes of water containing 110 ppm Triton X-100. The fungicide solutions were applied onto wheat seedlings using an automated booth sprayer to run-off. All sprayed plants were allowed to air dry prior to further handling. All fungicides were evaluated using the aforementioned method for their activity vs. all target diseases, unless stated otherwise. Wheat leaf blotch and brown rust activity were also evaluated using track spray applications, in which case the fungicides were formulated as EC formulations, containing 0.1% Trycol 5941 in the spray solutions. Tomato plants (variety Outdoor Girl) were propagated in soil-less Metro mix, with each pot having one plant, and used when 12 to 14 days old. Test plants were inoculated with an aqueous spore suspension of Alternaria solani 24 hr after fungicide treatments. After inoculation the plants were kept in 100% relative humidity (one day in a dark dew chamber followed by two to three days in a lighted dew chamber at 20° C.) to permit spores to germinate and infect the leaf. The plants were then transferred to a growth room at 22° C. for disease to develop. Fungicide formulation, application and disease assessment on the sprayed leaves followed the procedures as described in the Example A.

Experiment [8] deals with Magnaporthe grisea; Anamorph: Pyricularia oryzae. As to conditions: 1DP test at 100 ppm, rice.
The subject of experiment [9] is Parastagonospora nodorum. Description: Fungicidal activity: wheat glume blotch (LEPTNO). As to conditions: 1DP test at 100 ppm. Here is the method: Technical grades of materials were dissolved in acetone, which were then mixed with nine volumes of water containing 110 ppm Triton X-100. The fungicide solutions were applied onto wheat seedlings using an automated booth sprayer to run-off. All sprayed plants were allowed to air dry prior to further handling. All fungicides were evaluated using the aforementioned method for their activity vs. all target diseases, unless stated otherwise. Wheat leaf blotch and brown rust activity were also evaluated using track spray applications, in which case the fungicides were formulated as EC formulations, containing 0.1% Trycol 5941 in the spray solutions. Wheat plants (variety Yuma) were grown from seed in a greenhouse in 50% mineral soil/50% soil-less Metro mix until the first leaf was fully emerged, with 7-10 seedlings per pot. These plants were inoculated with an aqueous spore suspension of Parastagonospora nodorum 24 hr after fungicide treatments. After inoculation the plants were kept in 100% relative humidity (one day in a dark dew chamber followed by two days in a lighted dew chamber at 20° C.) to permit spores to germinate and infect the leaf. The plants were then transferred to a greenhouse set at 20° C. for disease to develop. Fungicide formulation, application and disease assessment followed the procedures as described in the Example A.

For `COc1ccnc(C(=O)N[C@H](C(=O)O[C@H](C)[C@H](C)c2ccc(F)cc2C)C(C)C)c1OC(=O)C(C)C` [Example 214], the “PHAKPA 1DP disease control” value in experiment [1] is reported as “B (≤80)”.

In the case of `COc1ccnc(C(=O)N[C@@H](C)C(=O)O[C@@H](C)[C@@H](C)c2ccccc2C)c1OC(C)=O` [Example 264], the COLLLA disease control result in [2] is “B (≤80)”. Besides, in experiment [3], the CERCBE disease control entry is “A (>80)”. The UNCINE disease control result in experiment [4] is “A (>80)”. For the same compound, in experiment [5], the RHYNSE disease control result was “B (≤80)”. Further, the PSPECU disease control result in [6] is “B (≤80)”. In addition, the ALTESO disease control entry in experiment [7] is listed as “B (≤80)”. Moreover, in experiment [8], the PYRIOR disease control entry is on record as “A (>80)”. Also, the LEPTNO disease control result in [9] is “A (>80)”.

With `COc1ccnc(C(=O)N[C@@H](C)C(=O)O[C@H](C)[C@@H](C)c2ccccc2C)c1OC(=O)C(C)C` [Example 225], the “PHAKPA 1DP disease control” value in [1] was “D (≤0)”.

As to `COc1ccnc(C(=O)N[C@@H](C)C(=O)O[C@H](C)[C@H](C)c2ccccc2C)c1OC(C)=O` [Example 263], in experiment [2], the COLLLA disease control result is reported as “D (≤0)”. For the same compound, the CERCBE disease control entry in experiment [3] is on record as “B (≤80)”. Moreover, in experiment [4], the UNCINE disease control entry is “A (>80)”. The RHYNSE disease control entry in [5] is “B (≤80)”. In addition, the PSPECU disease control entry in experiment [6] was “B (≤80)”. Besides, in experiment [7], the ALTESO disease control result was “B (≤80)”. Also, the PYRIOR disease control entry in experiment [8] is recorded as “B (≤80)”. The LEPTNO disease control entry in [9] is “B (≤80)”.

`COc1ccnc(C(=O)N[C@H](C(=O)O[C@@H](C)[C@H](C)c2ccc(F)cc2C)C(C)C)c1OC(=O)C(C)C` [Example 210]: in experiment [1], the “PHAKPA 3DC disease control” value is listed as “D (≤0)”.

As for `COc1ccnc(C(=O)NCC(=O)O[C@@H](C)[C@H](C)c2ccc(F)cc2C)c1OC(=O)C(C)C` [Example 197], in experiment [1], the “PHAKPA 1DP disease control” value is on record as “D (≤0)” and the “PHAKPA 3DC disease control” value is on record as “D (≤0)”.

With `COc1ccnc(C(=O)N[C@@H](C)C(=O)O[C@@H](C)[C@@H](C)c2ccccc2C)c1OC(=O)C(C)C` [Example 266], the COLLLA disease control result in [2] was “D (≤0)”. The CERCBE disease control entry in [3] was “B (≤80)”. Moreover, in experiment [4], the UNCINE disease control entry is given as “A (>80)”. In experiment [5], the RHYNSE disease control result is “B (≤80)”. In experiment [6], the PSPECU disease control result is on record as “D (≤0)”. Also, the ALTESO disease control result in experiment [7] is “B (≤80)”. In addition, the PYRIOR disease control result in experiment [8] was “A (>80)”. For the same compound, the LEPTNO disease control entry in experiment [9] is “A (>80)”.

Source of the values: patent publication US11155520B2, “Picolinamides as fungicides” (Dow AgroSciences LLC, priority 2018, dated 2021).
